Test results: US8829029B2, “Dual modulators of 5HT2A and D3 receptors” (Hoffmann-La Roche Inc., priority 2008, dated 2014)

How the values were obtained:
[1] = molecular target: human 5-HT2A serotonin receptor (Homo sapiens (Human), UniProt P28223); test: Radioligand binding ([3H]-ketanserin) to cloned human 5-HT2A receptor expressed in HEK-293 EBNA cells; settings: membranes of transfected HEK-293 EBNA cells, 1.1 nM [3H]-ketanserin, 1 h at RT
Experimental: The ability of the compounds to bind to the 5-HT2A, D3 and D2 receptors was determined using radioligand binding to cloned receptors selectively expressed in HEK-293 EBNA cells.
(§1) HEK-293 EBNA cells were transiently transfected with expression plasmids encoding for the human D2 or D3 dopamine- or for the human 5-HT2A serotonin receptor, respectively. The cells were harvested 48 h post-transfection, washed three times with cold PBS and stored at −80° C. prior to use. The pellet was suspended in cold 50 mM Tris-HCl buffer containing 10 mM EDTA (pH 7.4) and homogenized with a Polytron (Kinematica AG, Basel, Switzerland) for 20-30 sec at 12,000 rpm. After centrifugation at 48,000×g for 30 min at 4° C., the pellet was resuspended in cold 10 mM Tris-HCl buffer containing 0.1 mM EDTA (pH 7.4), homogenized, and centrifuged as above. This pellet was further resuspended in a smaller volume of ice cold 10 mM Tris-HCl buffer containing 0.1 mM EDTA (pH 7.4) and homogenized with a Polytron for 20-30 sec at 12,000 rpm. The protein content of this homogenate was determined with the Bio-Rad (Bradford) Protein Assay (Biorad Laboratories GmbH, München, Germany) according to the instructions of the manufacturer using gamma globulin as the standard. This homogenate was stored at −80° C. in aliquots and thawed immediately prior to use.
Aliquots of membrane preparations were thawed at RT, resuspended in assay buffer (D2, D3: 50 mM Tris-HCl, 120 mM NaCl, 5 mM MgCl2, 1 mM EDTA, 5 mM KCl, 1.5 mM CaCl2, pH=7.4; 5-HT2A: 50 mM Tris-HCl, 10 mM MgCl2, 1 mM EGTA, pH=7.4), homogenized with a Polytron for 20-30 sec at 12,000 rpm and adjusted to a final concentration of approximately 7.5 μg protein/well (D2, D3) and 15 μg protein/well (5-HT2A), respectively.
(§2) The binding affinity (Ki) of the compounds was determined using radioligand binding. Membranes were incubated in a total volume of 200 μl with a fixed concentration of radioligand (final concentration approximately 0.7 nM [^3H]-spiperone for D2, 0.5 nM [^3H]-spiperone for D3, and 1.1 nM [^3H]-ketanserin for 5-HT2A) and ten concentrations of test compound in ranging between 10 μM-0.1 nM for 1 h at RT. At the end of the incubation, the reaction mixtures were filtered on to unifilter 96-well white microplates with bonded GF/C filters (Packard BioScience, Zürich, Switzerland; preincubated for 1 h in 0.1% polyethylenimine (PEI) in assay buffer) with a Filtermate 196 harvester (Packard BioScience) and washed 3 times with cold assay buffer. The nonspecific binding was determined with equally composed reaction mixtures in the presence of 10 μM unlabelled spiperone. Per well 45 μl of Microscint 40 (Perkin Elmer, Schwerzenbach, Switzerland) was added, plates for sealed, shaken for 20 min and counted for 3 min on a Topcount Microplate Scintillation Counter (Canberra Packard SA, Zürich, Switzerland) with quenching correction.
(§3) The CPM value for each duplicate of a concentration of competing compound was averaged (y1), then the % specific binding was calculated according to the equation (((y1−non-specific)/(total binding−non-specific))×100). Graphs were plotted with the % specific binding using XLfit, a curve fitting program that iteratively plots the data using Levenburg Marquardt algorithm. The single site competition analysis equation used was y=A+((B−A)/(1+((x/C)^D))), where y is the % specific binding, A is the minimum y, B is the maximum y, C is the IC50, x is the log10 of the concentration of the competing compound and D is the slope of the curve (the Hill Coefficient). From these curves the IC50 (inhibition concentration at which 50% specific binding of the radioligand was displaced) and Hill coefficient were determined. The affinity constant (Ki) was calculated using the Cheng-Prusoff equation Ki=(IC50/1+([L]/Kd), where [L] is the concentration of radioligand and Kd is the dissociation constant of the radioligand at the receptor as determined by the saturation isotherm.

[2] = molecular target: human D3 dopamine receptor (Homo sapiens (Human), UniProt P35462); test: Radioligand binding ([3H]-spiperone) to cloned human D3 receptor expressed in HEK-293 EBNA cells; settings: membranes of transfected HEK-293 EBNA cells, 0.5 nM [3H]-spiperone, 1 h at RT
Chain of human D3 dopamine receptor (P35462 whole entry): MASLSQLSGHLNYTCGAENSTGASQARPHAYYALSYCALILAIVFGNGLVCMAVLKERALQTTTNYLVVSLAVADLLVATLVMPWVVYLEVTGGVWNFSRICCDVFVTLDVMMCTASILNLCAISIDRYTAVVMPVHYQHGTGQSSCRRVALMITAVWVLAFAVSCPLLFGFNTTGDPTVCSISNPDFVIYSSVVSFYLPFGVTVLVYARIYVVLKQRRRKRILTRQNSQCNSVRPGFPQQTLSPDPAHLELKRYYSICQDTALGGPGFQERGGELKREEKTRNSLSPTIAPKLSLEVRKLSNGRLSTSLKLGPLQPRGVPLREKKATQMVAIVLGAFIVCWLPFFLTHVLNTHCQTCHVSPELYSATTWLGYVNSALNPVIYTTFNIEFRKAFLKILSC
Experimental: as §1, with “The pellet was suspended in cold 50 mM Tris-HCl buffer containing 10 mM EDTA (pH 7.4) and homogenized with a Polytron (Kinematica AG, Basel, Switzerland) for 20-30 sec at 12,000 rpm.” left out, “This pellet was further resuspended in a smaller volume of ice cold 10 mM Tris-HCl buffer containing 0.1 mM EDTA (pH 7.4) and homogenized with a Polytron for 20-30 sec at 12,000 rpm.” left out
as §2, §3

Row | SMILES | Ki [1] | Ki [2]
1 | COc1cc(C(=O)N[C@H]2CC[C@H](CCN3CCC(c4noc5cc(F)ccc45)CC3)CC2)ccn1 [Example 13, N-trans (4-{2-[4-(6-Fluoro-benzo[d]isoxazol-3-yl)-piperidin-1-yl]-ethyl}-cyclohexyl)-2-methoxy-isonicotinamide] | 1.62 nM | 3.74 nM
2 | O=C(N[C@H]1CC[C@H](CCN2CCC(c3noc4cc(F)ccc34)CC2)CC1)c1ccc(N2CCCCC2)cc1 [Example 14, N-trans (4-{2-[4-(6-Fluoro-benzo[d]isoxazol-3-yl)-piperidin-1-yl]-ethyl}-cyclohexyl)-4-piperidin-1-yl-benzamide] | 2.6 nM | 8.69 nM
3 | O=C(N[C@H]1CC[C@H](CCN2CCC(c3noc4cc(F)ccc34)CC2)CC1)C1COc2ccccc2O1 (stereo partly drawn) [Example 15, 2,3-Dihydro-benzo[1,4]dioxine-2-carboxylic acid trans (4-{2-[4-(6-fluoro-benzo[d]isoxazol-3-yl)-piperidin-1-yl]-ethyl}-cyclohexyl)-amide] | 2.57 nM | 12.7 nM
4 | Cc1ccn(CC(=O)N[C@H]2CC[C@H](CCN3CCC(c4noc5cc(F)ccc45)CC3)CC2)n1 [Example 16, N-trans (4-{2-[4-(6-Fluoro-benzo[d]isoxazol-3-yl)-piperidin-1-yl]-ethyl}-cyclohexyl)-2-(3-methyl-pyrazol-1-yl)-acetamide] | 2.8 nM | 27.6 nM
5 | O=C(N[C@H]1CC[C@H](CCN2CCC(c3noc4cc(F)ccc34)CC2)CC1)c1ccc(-n2cccc2)cc1 [Example 17, N-trans(4-{2-[4-(6-Fluoro-benzo[d]isoxazol-3-yl)-piperidin-1-yl]-ethyl}-cyclohexyl)-4-pyrrol-1-yl-benzamide] | 2.45 nM | 2.61 nM
6 | O=C(N[C@H]1CC[C@H](CCN2CCC(c3noc4cc(F)ccc34)CC2)CC1)C1(O)CC1 [Example 18, 1-Hydroxy-cyclopropanecarboxylic acid trans (4-{2-[4-(6-fluoro-benzo[d]isoxazol-3-yl)-piperidin-1-yl]-ethyl}-cyclohexyl)-amide] | 1.44 nM | 5.92 nM
7 | O=C(N[C@H]1CC[C@H](CCN2CCC(c3noc4cc(F)ccc34)CC2)CC1)C1(C(F)(F)F)CCC1 [Example 19, 1-Trifluoromethyl-cyclobutanecarboxylic acid trans (4-{2-[4-(6-fluoro-benzo[d]isoxazol-3-yl)-piperidin-1-yl]-ethyl}-cyclohexyl)-amide] | 2.26 nM | 7.74 nM
8 | O=C(CC(F)(F)F)N[C@H]1CC[C@H](CCN2CCC(c3noc4cc(F)ccc34)CC2)CC1 [Example 20, 3,3,3-Trifluoro-N-trans (4-{2-[4-(6-fluoro-benzo[d]isoxazol-3-yl)-piperidin-1-yl]-ethyl}-cyclohexyl)-propionamide] | 2.78 nM | 5.19 nM
9 | COc1cc(CC(=O)N[C@H]2CC[C@H](CCN3CCC(c4noc5cc(F)ccc45)CC3)CC2)cc(OC)c1 [Example 21, 2-(3,5-Dimethoxy-phenyl)-N-trans (4-{2-[4-(6-fluoro-benzo[d]isoxazol-3-yl)-piperidin-1-yl]-ethyl}-cyclohexyl)-acetamide] | 2.95 nM | 8.77 nM
10 | CC1CN(c2ccc(C(=O)N[C@H]3CC[C@H](CCN4CCC(c5noc6cc(F)ccc56)CC4)CC3)cc2)CC(C)O1 (stereo partly drawn) [Example 22, 4-(2,6-Dimethyl-morpholin-4-yl)-N-trans (4-{2-[4-(6-fluoro-benzo[d]isoxazol-3-yl)-piperidin-1-yl]-ethyl}-cyclohexyl)-benzamide] | 21.2 nM | 137 nM
11 | CC(=O)N[C@H]1CC[C@H](CCN2CCC(c3noc4ccc(F)cc34)CC2)CC1 [Example 24, N-trans(4-{2-[4-(5-Fluoro-benzo[d]isoxazol-3-yl)-piperidin-1-yl]-ethyl}-cyclohexyl)-acetamide] | 46.9 nM | 2.44 nM
